# Test results reported in patent US20260374739A1, “SMALL MOLECULAR WEIGHT CHEMICAL COMPOUND TO ANTAGONIZE EPH-EPHRIN TETRAMERIZATION AND INHIBIT BIDIRECTIONAL SIGNALING” (THE BOARD OF REGENTS OF THE UNIVERSITY OF TEXAS SYSTEM, priority 2022, published 2026).
# Target: T1, EphrinB2-EphB2 (Homo sapiens, UniProt P29323)
# T1 construct: soluble human EphB1-His, EphB2-His, and EphB4-His ectodomains; commercially available human EphrinB1-Fc (EB1), EphrinB2-Fc (EB2), and EphrinB3-Fc (EB3) ectodomain proteins; purchased
# T1 sequence (P29323 19-543 limits assumed): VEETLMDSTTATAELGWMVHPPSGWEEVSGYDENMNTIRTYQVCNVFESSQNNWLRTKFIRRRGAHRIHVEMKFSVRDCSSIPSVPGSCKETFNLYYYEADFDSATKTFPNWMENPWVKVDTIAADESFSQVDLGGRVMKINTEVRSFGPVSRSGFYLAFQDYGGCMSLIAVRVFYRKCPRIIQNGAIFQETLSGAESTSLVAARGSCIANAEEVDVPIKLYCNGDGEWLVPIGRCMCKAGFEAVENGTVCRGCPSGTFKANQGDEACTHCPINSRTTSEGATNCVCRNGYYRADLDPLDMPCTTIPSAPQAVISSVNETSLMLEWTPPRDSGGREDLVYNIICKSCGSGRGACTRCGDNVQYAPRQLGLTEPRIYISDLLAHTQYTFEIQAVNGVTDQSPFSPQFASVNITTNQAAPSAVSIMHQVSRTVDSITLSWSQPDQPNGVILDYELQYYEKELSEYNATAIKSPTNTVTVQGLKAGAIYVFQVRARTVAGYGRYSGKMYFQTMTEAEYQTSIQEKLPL
# Assay: Octet tetramerization inhibition, immobilized human EphrinB2 binding to 50 nM soluble human EphB2
# [1] = Absolute AUC/IC50, Table A, EphrinB2-EphB2
# [2] = Absolute Association IC50 (300 sec), Table A, EphrinB2-EphB2
# [3] = Absolute Dissociation IC50 (450 sec), Table A, EphrinB2-EphB2
# [4] = Relative Association IC50 (300 sec), Table A, EphrinB2-EphB2
# [5] = Relative Dissociation IC50 (450 sec), Table A, EphrinB2-EphB2
# [6] = tetramerization inhibitor IC50 (relative), association step, surmountable tetramer
IC50 [1] [µM],IC50 [2] [µM],IC50 [3] [µM],"IC50 (Relative AUC/IC50, Table A, EphrinB2-EphB2, compound 7: association only) [µM]",IC50 [4] [µM],Compound,tetramerization inhibitor activity,IC50 [5] [µM],IC50 [6] [µM]
> 3.2,> 3.2,> 3.2,> 3.2,> 3.2,"Cc1ccc2c(CN3CCN(c4ccc(Br)cc4)CC3)ccc(O)c2n1 [Compound 60, 5-((4-(4-bromophenyl)piperazin-1-yl)methyl)-2-methylquinolin-8-ol]",appears to eliminate tetramerization inhibitor activity,> 3.2,–
> 3.2,> 3.2,> 3.2,–,3,"Oc1ccc(CN2CCN(c3ccccc3)CC2)c2cccnc12 [Compound 22, 5-((4-phenylpiperazin-1-yl)methyl)quinolin-8-ol]",–,–,~3
–,–,–,–,–,"Oc1ccc(CN2CCN(c3ccc(I)cc3)CC2)c2cccnc12 [Compound 31, 5-((4-(4-iodophenyl)piperazin-1-yl)methyl)quinolin-8-ol]",appeared less potent,–,–
–,–,–,–,–,"O=S1(=O)CCN(Cc2cc(I)c(O)c3ncccc23)CC1 [Compound 18, 4-((8-hydroxy-7-iodoquinolin-5-yl)methyl)thiomorpholine 1,1-dioxide]",–,–,~0.8

Compound,IC50 [1] [µM],IC50 [2] [µM],IC50 [3] [µM],"IC50 (Relative AUC/IC50, Table A, EphrinB2-EphB2, compound 7: association only) [µM]",IC50 [4] [µM],tetramerization inhibitor activity,IC50 [5] [µM],IC50 [6] [µM]
"CC(=O)Nc1ccc(N2CCN(Cc3ccc(O)c4ncccc34)CC2)cc1 [Compound 50, N-(4-(4-((8-hydroxyquinolin-5-yl)methyl)piperazin-1-yl)phenyl)acetamide]",> 3.2,> 3.2,> 3.2,–,2.77,–,1.95,> 3
